From PubChem BioAssay AID588822 (The Scripps Research Institute Molecular Screening Center, 2011)
The source made the active and inactive calls.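 Rule for the calls: active = half-maximal inhibitory concentration of 10 µM or lower; inactive = the rest.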

target: Nuclear receptor subfamily 0 group B member 1 (Homo sapiens) (UniProt P51843); test: DAX1 (NR0B1) repression inhibitors, late-stage follow-up, cell-based, luminescence, HEK293, Gal4-DAX1 reporter, dose response (AID 588822); settings: HEK293 Gal4-DAX1 luciferase reporter
Sequence (P51843 207-470 limits assumed): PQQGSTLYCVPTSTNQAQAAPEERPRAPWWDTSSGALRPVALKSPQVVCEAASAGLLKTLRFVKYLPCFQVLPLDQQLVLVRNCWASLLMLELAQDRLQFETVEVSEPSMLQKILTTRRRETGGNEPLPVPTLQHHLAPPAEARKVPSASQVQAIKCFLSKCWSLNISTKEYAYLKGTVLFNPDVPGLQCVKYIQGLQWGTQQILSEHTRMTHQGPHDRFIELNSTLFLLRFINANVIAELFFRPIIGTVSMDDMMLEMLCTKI

IC50	SMILES
> 69.5 µM (inactive)	COc1ccc(OC)c(C(C)NC(=O)c2ccc3c(c2)OCCO3)c1 (centres undefined)
> 69.5 µM (inactive)	O=C(Nc1ccc2c(c1)OCO2)c1ccc(C2SCC(=O)N2Cc2ccccc2)cc1 (centres undefined)
> 69.5 µM (inactive)	O=C(Cc1cccs1)Nc1ccc2c(c1)OCO2
> 69.5 µM (inactive)	COc1ccc(OC)c(C(C)NC(=O)c2ccc(Cl)cc2)c1 (centres undefined)
> 69.5 µM (inactive)	COc1ccc(OC)c(C(C)NC(=O)c2ccccc2C)c1 (centres undefined)
> 69.5 µM (inactive)	COc1ccc(OC)c(C(C)NC(=O)c2ccc(C(C)(C)C)cc2)c1 (centres undefined)
> 69.5 µM (inactive)	Cc1cc(C(=O)Nc2ccc3c(c2)OCO3)cs1
> 69.5 µM (inactive)	COc1ccc(OC)c(C(C)NC(=O)c2ccc(F)cc2)c1 (centres undefined)
> 69.5 µM (inactive)	COc1ccc(OC)c(C(C)NC(=O)c2ccccc2)c1 (centres undefined)
> 69.5 µM (inactive)	Cc1occc1C(=O)Nc1ccc2c(c1)OCO2
> 69.5 µM (inactive)	COc1ccc(OC)c(C(C)NC(=O)c2ccc(C)cc2)c1 (centres undefined)
> 69.5 µM (inactive)	CSc1ccccc1C(=O)Nc1ccc2c(c1)OCCO2
> 69.5 µM (inactive)	O=C(Nc1ccc2c(c1)OCO2)c1ccc(C2SCC(=O)N2Cc2ccco2)cc1 (centres undefined)
> 69.5 µM (inactive)	CSc1ccccc1C(=O)Nc1ccc2c(c1)OCO2
> 69.5 µM (inactive)	Cn1c(=O)n(C)c2cc(C(=O)Nc3ccc4c(c3)OCCO4)ccc21
> 69.5 µM (inactive)	COc1cccc(C(=O)NC(C)c2cc(OC)ccc2OC)c1 (centres undefined)
> 69.5 µM (inactive)	COc1ccc(OC)c(C(C)NC(=O)c2ccccc2Cl)c1 (centres undefined)

Further lines, the compound ahead of its results:

SMILES	IC50
Cn1c(=O)n(C)c2cc(C(=O)Nc3ccc4c(c3)OCO4)ccc21	> 69.5 µM (inactive)
COc1cccc(C(=O)Nc2ccc3c(c2)OCO3)c1	> 69.5 µM (inactive)
COc1ccc(OC)c(C(C)NC(=O)c2c(F)cccc2Cl)c1 (centres undefined)	> 69.5 µM (inactive)
COc1cccc(C(=O)Nc2ccc3c(c2)OCCO3)c1	> 69.5 µM (inactive)
COc1ccc(OC)c(C(C)NC(=O)c2ccccc2F)c1 (centres undefined)	> 69.5 µM (inactive)
COc1ccc(OC)c(C(C)NC(=O)c2cccc(F)c2)c1 (centres undefined)	> 69.5 µM (inactive)
O=C(Nc1ccc2c(c1)OCCO2)c1ccc2ccccc2c1	> 69.5 µM (inactive)
COc1ccc(OC)c(C(C)NC(=O)c2cccc3ccccc23)c1 (centres undefined)	> 69.5 µM (inactive)
COc1ccc(OC)c(C(C)NC(=O)c2cccc(C)c2)c1 (centres undefined)	> 69.5 µM (inactive)
O=C(Nc1ccc2c(c1)OCO2)c1ccc2ccccc2c1	> 69.5 µM (inactive)
CN(C)c1cccc(C(=O)Nc2ccc3c(c2)OCCO3)c1	> 69.5 µM (inactive)
O=C(Nc1ccc2c(c1)OCO2)c1cccs1	> 69.5 µM (inactive)
